Measurements: patent US11116778B2, “Prodrugs of ALOX-15 inhibitors and methods of using the same” (EMPIRICO INC., priority 2019, dated 2021)

Assays:
ALOX15 mRNA = ALOX15 mRNA by RT-qPCR in human nasal epithelial primary cells; assay type: cell-based; settings: 5 μM or 1 μM, 3 x 24 hours with 20 ng/mL IL-13
Protocol: Human nasal epithelial primary cells (HNEpC) (PromoCell GmbH, Heidelberg, Germany) were cultured according to the manufacturer in provided Primary Cell media in 24 well plates at a density of 25,000 cells per well. Cells were treated with 5 μM or 1 μM of compound 5 or vehicle only (water) in media containing 20 ng/mL IL-13 for 24 hours in a 37° C. cell culture incubator. The following day, media was replaced and fresh media containing 20 ng/mL IL-13 and compound 5 or vehicle was added to each well, then incubated again for 24 hours in a 37° C. cell culture incubator. The process was repeated once more for a 24-hour period.
ALOX15 and POSTN mRNA levels were measured by RT-qPCR. […] The level of ALOX15 mRNA from each sample was measured in triplicate by real-time qPCR on an Applied Biosystems 7500 Fast Real-Time PCR machine using the TaqMan Gene Expression Assay for human ALOX15 (ThermoFisher, assay #Hs00993765_g1). The level of PPIA mRNA was measured in biplex reactions using TaqMan Gene Expression Assay (ThermoFisher, assay #Hs99999904_ml) and used to determine relative ALOX15 mRNA levels in each well using the delta-delta Ct method. […] Relative POSTN mRNA levels were measured as above using TaqMan Gene Expression Assay specific for human POSTN mRNA (ThermoFisher, assay #Hs00170815_m1). […]

[1] = target: T1, human lipoxygenase (ALOX15 Active Human Recombinant Protein) (Homo sapiens, UniProt P16050); assay: Recombinant human ALOX15 assay (DPPP fluorescence)
T1 sequence (P16050 1-662): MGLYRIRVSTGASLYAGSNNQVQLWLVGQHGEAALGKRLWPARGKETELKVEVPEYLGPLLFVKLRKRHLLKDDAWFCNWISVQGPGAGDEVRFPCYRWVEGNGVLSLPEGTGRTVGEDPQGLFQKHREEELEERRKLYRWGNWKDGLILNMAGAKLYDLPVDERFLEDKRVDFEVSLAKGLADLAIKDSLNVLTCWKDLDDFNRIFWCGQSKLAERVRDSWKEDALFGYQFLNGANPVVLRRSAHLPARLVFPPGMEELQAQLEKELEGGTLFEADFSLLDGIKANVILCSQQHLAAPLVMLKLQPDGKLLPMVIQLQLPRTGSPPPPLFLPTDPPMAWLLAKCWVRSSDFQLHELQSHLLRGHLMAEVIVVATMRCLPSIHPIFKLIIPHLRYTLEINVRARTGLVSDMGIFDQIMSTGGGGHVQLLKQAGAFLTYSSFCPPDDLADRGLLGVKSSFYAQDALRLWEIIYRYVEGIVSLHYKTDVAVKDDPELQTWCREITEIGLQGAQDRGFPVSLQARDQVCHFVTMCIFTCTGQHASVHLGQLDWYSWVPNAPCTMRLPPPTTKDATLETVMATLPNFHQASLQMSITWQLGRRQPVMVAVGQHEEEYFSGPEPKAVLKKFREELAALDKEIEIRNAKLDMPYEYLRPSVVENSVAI
Protocol: Within a minute of phosphatase addition, a white precipitate appeared.
This mixture was incubated for 5 min before the addition of 1.5 μL 0.2 mM arachidonic acid.

SMILES: O=C(Nc1ccc(F)cc1Cl)c1nn(COP(=O)(O)O)c(Cl)c1Cl [compound 5, (4,5-dichloro-3-((2-chloro-4-fluorophenyl)carbamoyl)-1H-pyrazol-1-yl)methyl dihydrogen phosphate]
- relative level of ALOX15 mRNA versus vehicle (FIG. 7) (ALOX15 mRNA): lower
- IC50 [1]: 32 nM
- inhibition of ALOX15 ([1]; in the absence of treatment with phosphatase): No inhibition was observed
